# The source made the active and inactive calls. The calls are words filed in the database; no cut-off is given here.
# How the values were obtained:
# [1] = Lipophilicity, log D of the compound at pH 7.4; type: physicochemical; settings: buffer
# [2] = Half life in Sprague-Dawley rat at 1 mg/kg, iv by UPLC-MS analysis; type: ADME, organism-based; settings: in vivo
# [3] = Volume of distribution at steady state in Beagle dog at 1 mg/kg, iv by UPLC-MS analysis; type: ADME, organism-based, Canis lupus familiaris; settings: in vivo, read-out: Vdss
# [4] = Half life in Beagle dog at 1 mg/kg, iv by UPLC-MS analysis; type: ADME, organism-based, Canis lupus familiaris; settings: in vivo
# [5] = Half life in patient with advanced solid tumor at 80 mg, po administered once daily measured on day 15; type: ADME, organism-based; settings: human, in vivo
# [6] = Cmax in patient with advanced solid tumor at 20 mg, po administered once daily measured on day 15; type: ADME, organism-based; parameters: dose 20 mg, route oral; settings: human, in vivo
# [7] = Cmax in patient with advanced solid tumor at 240 mg, po administered once daily measured on day 15; type: ADME, organism-based; parameters: dose 240 mg, route oral; settings: human, in vivo
# [8] = AUClast in patient with advanced solid tumor at 240 mg, po administered once daily measured on day 15; type: ADME, organism-based; parameters: dose 240 mg, time 0 - last, route oral; settings: human, in vivo
# [9] = Plasma concentration in patient with advanced solid tumor at 160 mg, po administered once daily measured on day 15 after 24 hrs; type: ADME, organism-based; settings: human
# Homo sapiens [10] = experiment: In vivo inhibition of HIF-2alpha in po dosed patient with advanced solid tumor assessed as reduction in EPO expression administered once daily; type: organism-based
# [11] = target: Adenosine receptor A1 (Homo sapiens) (UniProt P30542); experiment: Activity at human adenosine A1 receptor at 10 uM
# Adenosine receptor A1 (Homo sapiens), sequence (P30542 whole entry): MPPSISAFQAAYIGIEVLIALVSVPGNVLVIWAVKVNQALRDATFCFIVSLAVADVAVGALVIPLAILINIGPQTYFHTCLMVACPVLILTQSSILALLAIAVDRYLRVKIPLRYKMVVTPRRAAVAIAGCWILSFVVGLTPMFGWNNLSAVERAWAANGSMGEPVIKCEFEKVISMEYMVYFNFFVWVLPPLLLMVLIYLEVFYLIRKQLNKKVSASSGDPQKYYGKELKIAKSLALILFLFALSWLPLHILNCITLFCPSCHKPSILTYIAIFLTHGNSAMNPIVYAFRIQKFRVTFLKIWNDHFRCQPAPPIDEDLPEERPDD
# [12] = target: Calcium/calmodulin-dependent protein kinase type IV (Homo sapiens) (UniProt Q16566); experiment: Activity at human CAMK4 at 10 uM
# [13] = target: Vasoactive intestinal polypeptide receptor 1 (Homo sapiens) (UniProt P32241); experiment: Activity at human VPAC1 long isoform at 10 uM
# [14] = target: Substance-P receptor (Homo sapiens) (UniProt P25103); experiment: Activity at human NK1 receptor at 10 uM
# [15] = target: 5-hydroxytryptamine receptor 2C (Homo sapiens) (UniProt P28335); experiment: Activity at human 5-HT2C receptor at 10 uM
# [16] = target: Thromboxane A2 receptor (Homo sapiens) (UniProt P21731); experiment: Activity at human Prostanoid TP receptor at 10 uM
# Thromboxane A2 receptor (Homo sapiens), sequence (P21731 whole entry): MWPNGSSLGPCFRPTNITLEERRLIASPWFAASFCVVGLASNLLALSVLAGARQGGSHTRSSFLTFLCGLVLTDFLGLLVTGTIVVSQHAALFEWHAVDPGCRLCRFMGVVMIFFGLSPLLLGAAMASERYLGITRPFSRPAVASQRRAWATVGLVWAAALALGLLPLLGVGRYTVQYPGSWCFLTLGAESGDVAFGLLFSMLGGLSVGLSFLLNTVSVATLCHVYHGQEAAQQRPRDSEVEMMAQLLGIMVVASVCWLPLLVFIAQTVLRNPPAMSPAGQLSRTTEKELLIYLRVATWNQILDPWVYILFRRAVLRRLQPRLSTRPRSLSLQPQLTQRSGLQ
# [17] = target: Prostacyclin receptor (Homo sapiens) (UniProt P43119); experiment: Activity at human Prostanoid IP1 receptor at 10 uM; type: functional
# Prostacyclin receptor (Homo sapiens), sequence (P43119 whole entry): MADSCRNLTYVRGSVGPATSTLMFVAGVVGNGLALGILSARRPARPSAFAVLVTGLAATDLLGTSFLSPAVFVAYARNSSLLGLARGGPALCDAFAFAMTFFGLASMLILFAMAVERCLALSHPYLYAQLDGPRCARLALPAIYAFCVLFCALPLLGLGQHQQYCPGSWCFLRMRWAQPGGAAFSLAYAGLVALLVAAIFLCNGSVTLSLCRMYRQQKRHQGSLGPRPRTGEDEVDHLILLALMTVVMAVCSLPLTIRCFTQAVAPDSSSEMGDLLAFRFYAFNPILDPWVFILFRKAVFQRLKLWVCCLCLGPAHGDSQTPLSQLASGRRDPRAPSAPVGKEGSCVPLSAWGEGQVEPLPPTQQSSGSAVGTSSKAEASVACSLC
# [18] = target: Prostaglandin E2 receptor EP3 subtype (Homo sapiens) (UniProt P43115); experiment: Activity at human Prostanoid EP3 receptor at 10 uM
# Prostaglandin E2 receptor EP3 subtype (Homo sapiens), sequence (P43115 whole entry): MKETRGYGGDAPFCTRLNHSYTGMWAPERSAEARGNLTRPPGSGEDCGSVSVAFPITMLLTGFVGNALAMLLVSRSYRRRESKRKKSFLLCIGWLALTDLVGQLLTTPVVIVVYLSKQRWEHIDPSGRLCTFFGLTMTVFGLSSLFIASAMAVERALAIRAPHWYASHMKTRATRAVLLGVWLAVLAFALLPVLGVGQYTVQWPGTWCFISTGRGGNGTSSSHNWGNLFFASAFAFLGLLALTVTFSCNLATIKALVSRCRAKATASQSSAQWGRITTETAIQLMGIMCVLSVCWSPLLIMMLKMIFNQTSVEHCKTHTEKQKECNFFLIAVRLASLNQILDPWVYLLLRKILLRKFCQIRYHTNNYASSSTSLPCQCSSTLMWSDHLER
# [19] = target: Prostaglandin D2 receptor (Homo sapiens) (UniProt Q13258); experiment: Activity at human Prostanoid DP receptor at 10 uM
# [20] = target: Oxytocin receptor (Homo sapiens) (UniProt P30559); experiment: Activity at human oxytocin receptor at 10 uM
# [21] = target: Kappa-type opioid receptor (Homo sapiens) (UniProt P41145); experiment: Activity at human kappa opioid receptor at 10 uM
# [22] = target: CDK7/Cyclin H/MNAT1 (Homo sapiens) (UniProt P51946+P50613+P51948); experiment: Activity at human CDK7/cyclinH/MAT1 at 10 uM; type: protein-complex assay
# [23] = target: Glycogen synthase kinase-3 beta (Homo sapiens) (UniProt P49841); experiment: Activity at human GSK3beta at 10 uM
# [24] = target: Mitogen-activated protein kinase 1 (Homo sapiens) (UniProt P28482); experiment: Activity at human MAPK1 at 10 uM
# Mitogen-activated protein kinase 1 (Homo sapiens), sequence (P28482 whole entry): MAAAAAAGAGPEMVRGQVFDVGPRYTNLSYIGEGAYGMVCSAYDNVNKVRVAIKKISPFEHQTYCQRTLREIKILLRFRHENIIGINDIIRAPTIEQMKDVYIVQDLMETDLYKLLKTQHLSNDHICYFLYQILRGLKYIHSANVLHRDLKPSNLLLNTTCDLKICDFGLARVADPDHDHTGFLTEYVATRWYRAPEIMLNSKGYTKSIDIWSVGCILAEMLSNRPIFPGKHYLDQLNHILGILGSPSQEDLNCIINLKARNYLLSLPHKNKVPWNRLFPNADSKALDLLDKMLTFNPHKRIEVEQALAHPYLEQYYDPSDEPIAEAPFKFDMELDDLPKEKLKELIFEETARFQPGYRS
# Homo sapiens [25] = organism: Homo sapiens; experiment: Activity at human PKA at 10 uM
# [26] = target: Protein kinase C beta type (Homo sapiens) (UniProt P05771); experiment: Activity at human PKCbeta2 at 10 uM
# Protein kinase C beta type (Homo sapiens), sequence (P05771 2-671 limits assumed): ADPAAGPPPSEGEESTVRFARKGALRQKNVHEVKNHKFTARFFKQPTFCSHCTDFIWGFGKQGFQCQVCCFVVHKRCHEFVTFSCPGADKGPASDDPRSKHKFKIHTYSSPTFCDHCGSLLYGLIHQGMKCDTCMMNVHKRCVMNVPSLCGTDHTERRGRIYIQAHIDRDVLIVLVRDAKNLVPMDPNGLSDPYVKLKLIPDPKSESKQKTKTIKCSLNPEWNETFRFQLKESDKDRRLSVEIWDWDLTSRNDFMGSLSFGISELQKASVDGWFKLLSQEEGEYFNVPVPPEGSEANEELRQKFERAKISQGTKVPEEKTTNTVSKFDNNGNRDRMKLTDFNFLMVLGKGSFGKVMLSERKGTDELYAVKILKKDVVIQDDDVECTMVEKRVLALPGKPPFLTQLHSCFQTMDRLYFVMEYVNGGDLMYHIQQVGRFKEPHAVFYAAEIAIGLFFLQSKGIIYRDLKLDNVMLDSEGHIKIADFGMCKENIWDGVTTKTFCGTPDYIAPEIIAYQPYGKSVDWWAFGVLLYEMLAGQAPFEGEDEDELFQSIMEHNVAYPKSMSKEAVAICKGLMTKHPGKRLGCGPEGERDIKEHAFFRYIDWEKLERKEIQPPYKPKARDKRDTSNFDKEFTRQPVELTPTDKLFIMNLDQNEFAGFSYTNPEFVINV
# [27] = target: Protein kinase C gamma type (Homo sapiens) (UniProt P05129); experiment: Activity at human PKCgamma at 10 uM
# [28] = target: Protein kinase C delta type (Homo sapiens) (UniProt Q05655); experiment: Activity at human PKCdelta at 10 uM
# [29] = target: Protein kinase C epsilon type (Homo sapiens) (UniProt Q02156); experiment: Activity at human PKCepsilon at 10 uM
# [30] = target: Protein kinase C theta type (Homo sapiens) (UniProt Q04759); experiment: Activity at human PKCtheta at 10 uM
# Protein kinase C theta type (Homo sapiens), sequence (Q04759 whole entry, looked up): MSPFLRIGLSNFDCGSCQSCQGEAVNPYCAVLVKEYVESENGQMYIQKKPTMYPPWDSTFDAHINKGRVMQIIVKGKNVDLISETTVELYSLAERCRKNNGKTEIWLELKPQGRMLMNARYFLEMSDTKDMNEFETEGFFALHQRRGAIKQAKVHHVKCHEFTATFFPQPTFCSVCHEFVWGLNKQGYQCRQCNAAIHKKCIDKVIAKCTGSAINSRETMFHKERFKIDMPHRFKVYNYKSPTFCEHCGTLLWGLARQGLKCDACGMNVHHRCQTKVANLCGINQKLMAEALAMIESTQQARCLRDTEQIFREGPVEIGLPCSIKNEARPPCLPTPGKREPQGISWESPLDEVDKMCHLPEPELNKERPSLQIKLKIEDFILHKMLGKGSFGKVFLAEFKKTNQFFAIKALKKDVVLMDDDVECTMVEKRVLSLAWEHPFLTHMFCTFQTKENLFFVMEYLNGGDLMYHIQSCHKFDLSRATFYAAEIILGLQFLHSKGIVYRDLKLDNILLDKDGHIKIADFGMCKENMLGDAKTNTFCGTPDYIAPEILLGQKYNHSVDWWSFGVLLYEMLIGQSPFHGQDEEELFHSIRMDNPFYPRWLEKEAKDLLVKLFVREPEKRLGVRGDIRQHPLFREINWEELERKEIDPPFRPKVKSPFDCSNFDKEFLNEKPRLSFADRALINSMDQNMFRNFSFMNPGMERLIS
# [31] = target: Rho-associated protein kinase 2 (Homo sapiens) (UniProt O75116); experiment: Activity at human ROCK2 at 10 uM
# Rho-associated protein kinase 2 (Homo sapiens), sequence (O75116 whole entry, looked up): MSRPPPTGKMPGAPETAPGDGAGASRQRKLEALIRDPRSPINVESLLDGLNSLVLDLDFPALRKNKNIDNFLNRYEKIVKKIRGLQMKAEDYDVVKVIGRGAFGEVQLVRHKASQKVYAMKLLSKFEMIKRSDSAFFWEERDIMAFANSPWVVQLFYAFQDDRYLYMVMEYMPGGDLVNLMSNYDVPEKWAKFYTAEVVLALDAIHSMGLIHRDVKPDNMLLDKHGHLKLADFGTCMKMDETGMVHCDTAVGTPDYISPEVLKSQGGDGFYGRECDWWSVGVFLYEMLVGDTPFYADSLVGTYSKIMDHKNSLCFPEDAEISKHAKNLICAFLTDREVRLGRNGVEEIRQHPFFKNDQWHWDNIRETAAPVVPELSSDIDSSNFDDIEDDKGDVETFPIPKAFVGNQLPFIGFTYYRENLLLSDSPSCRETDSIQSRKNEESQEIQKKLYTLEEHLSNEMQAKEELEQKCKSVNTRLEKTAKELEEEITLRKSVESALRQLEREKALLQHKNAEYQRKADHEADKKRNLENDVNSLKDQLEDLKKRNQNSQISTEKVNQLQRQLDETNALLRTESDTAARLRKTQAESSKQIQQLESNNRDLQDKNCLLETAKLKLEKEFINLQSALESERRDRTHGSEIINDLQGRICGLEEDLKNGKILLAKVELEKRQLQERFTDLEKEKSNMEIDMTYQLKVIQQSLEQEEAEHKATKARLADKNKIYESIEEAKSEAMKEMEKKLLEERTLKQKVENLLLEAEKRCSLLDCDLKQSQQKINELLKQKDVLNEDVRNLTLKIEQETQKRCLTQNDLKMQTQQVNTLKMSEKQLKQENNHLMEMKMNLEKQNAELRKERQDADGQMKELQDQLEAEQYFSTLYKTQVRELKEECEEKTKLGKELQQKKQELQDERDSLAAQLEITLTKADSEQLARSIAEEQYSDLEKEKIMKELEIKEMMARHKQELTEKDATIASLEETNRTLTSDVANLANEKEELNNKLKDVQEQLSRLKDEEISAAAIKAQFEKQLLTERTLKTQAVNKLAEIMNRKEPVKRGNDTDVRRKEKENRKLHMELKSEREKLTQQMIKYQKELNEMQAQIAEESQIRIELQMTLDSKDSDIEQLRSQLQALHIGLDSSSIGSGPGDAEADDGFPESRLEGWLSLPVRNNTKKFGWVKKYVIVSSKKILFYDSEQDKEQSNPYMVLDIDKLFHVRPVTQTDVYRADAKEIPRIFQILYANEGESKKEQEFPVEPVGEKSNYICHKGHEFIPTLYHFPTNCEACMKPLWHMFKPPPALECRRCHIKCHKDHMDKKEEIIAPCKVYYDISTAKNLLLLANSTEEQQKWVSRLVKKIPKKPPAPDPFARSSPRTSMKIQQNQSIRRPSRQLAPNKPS
# [32] = target: Tyrosine-protein phosphatase non-receptor type 1 (Homo sapiens) (UniProt P18031); experiment: Activity at human PTP1B at 10 uM
# Tyrosine-protein phosphatase non-receptor type 1 (Homo sapiens), sequence (P18031 whole entry): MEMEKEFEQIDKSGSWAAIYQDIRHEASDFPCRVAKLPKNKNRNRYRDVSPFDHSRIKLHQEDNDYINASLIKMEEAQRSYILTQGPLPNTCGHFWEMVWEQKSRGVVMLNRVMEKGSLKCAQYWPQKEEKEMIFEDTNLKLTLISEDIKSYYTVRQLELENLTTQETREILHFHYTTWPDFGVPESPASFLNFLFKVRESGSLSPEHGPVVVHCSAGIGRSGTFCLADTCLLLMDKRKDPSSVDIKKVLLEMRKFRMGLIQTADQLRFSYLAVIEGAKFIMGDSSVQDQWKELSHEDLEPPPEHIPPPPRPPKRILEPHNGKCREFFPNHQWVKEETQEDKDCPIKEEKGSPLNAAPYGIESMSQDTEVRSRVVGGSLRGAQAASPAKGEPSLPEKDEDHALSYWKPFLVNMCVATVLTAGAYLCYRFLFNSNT
# [33] = target: Beta-1 adrenergic receptor (Homo sapiens) (UniProt P08588); experiment: Activity at human beta1 receptor at 10 uM
smiles,measurement,setting,value
CS(=O)(=O)c1ccc(Oc2cc(F)cc(C#N)c2)c2c1[C@H](O)[C@H](F)[C@@H]2F [BELZUTIFAN],logD,[1],1.2
same,half-life,[2],1.4 h
same,Vd,[3],1.3 L/kg
same,half-life,[4],14 h
same,half-life,[5],15.4 h
same,Cmax,[6],200 ng/mL
same,Cmax,[7],2700 ng/mL
same,AUC(0-t),[8],28000 ng·h/mL
same,concentration at 24 h,[9],490 ng/mL
same,inhibition (INH),Homo sapiens [10],Dose-dependent effect
same,Activity,[11],inactive
same,Activity,[12],inactive
same,Activity,[13],inactive
same,Activity,[14],inactive
same,Activity,[15],inactive
same,Activity,[16],inactive
same,Activity,[17],inactive
same,Activity,[18],inactive
same,Activity,[19],inactive
same,Activity,[20],inactive
same,Activity,[21],inactive
same,Activity,[22],inactive
same,Activity,[23],inactive
same,Activity,[24],inactive
same,Activity,Homo sapiens [25],inactive
same,Activity,[26],inactive
same,Activity,[27],inactive
same,Activity,[28],inactive
same,Activity,[29],inactive
same,Activity,[30],inactive
same,Activity,[31],inactive
same,Activity,[32],inactive
same,Activity,[33],inactive
